tested on: HSD1 enzyme that is expressed in rabbit placenta tissue; assay: Inhibition of E1 to E2 conversion in rabbit placenta tissue homogenate; format: biochemical; conditions: compound 100 nM, 30 nM estrone, 1 mM β-NADPH, 30 min
Outline: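 Rabbit placenta homogenate (20 mM KH2PO4, 1 mM EDTA, pH 7.4) incubated 30 min with 1 mM β-NADPH, 30 nM estrone plus 5 nM [3H]-estrone tracer, and inhibitor at 1 μM or 0.1 μM (1% DMSO). Stopped with TCA; estrone and estradiol resolved by HPLC with scintillation counting; % inhibition = 100 − % conversion relative to uninhibited control.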

Point of comparison: C[C@]12CCC3c4cccc(F)c4CCC3C1[C@H](CCC(=O)Nc1ncccc1F)c1c[nH]nc12 (stereo partly drawn) [Compound 231, 3-((8aS,12S)-3-fluoro-8a-methyl-1,2,6b,7,8,8a,10,12,12a,12b-decahydronaphtho[2′,1′:4,5]indeno[1,2-c]pyrazol-12-yl)-N-(3-fluoropyridin-2-yl)propanamide], “Rabbit placenta inhibition % @100 nM” value 35%. Against it:
- C[C@]12CCC3c4ccccc4CCC3C1[C@H](CCC(=O)Nc1ccc(F)cn1)c1c[nH]nc12 (stereo partly drawn) [Compound 159, N-(5-fluoropyridin-2-yl)-3-((8aS,12S)-8a-methyl-1,2,6b,7,8,8a,10,12,12a,12b-decahydronaphtho[2′,1′:4,5]indeno[1,2-c]pyrazol-12-yl)propanamide] — lower, 23%
- C[C@]12CCC3c4ccccc4CCC3C1[C@H](CCC(=O)Nc1cc(F)ccn1)c1c[nH]nc12 (stereo partly drawn) [Compound 162, N-(4-fluoropyridin-2-yl)-3-((8aS,12S)-8a-methyl-1,2,6b,7,8,8a,10,12,12a,12b-decahydronaphtho[2′,1′:4,5]indeno[1,2-c]pyrazol-12-yl)propanamide] — higher, 44%
- COc1ccnc(NC(=O)CC[C@@H]2c3c[nH]nc3[C@@]3(C)CCC4c5ccccc5CCC4C23)c1 (stereo partly drawn) [Compound 165, N-(4-methoxypyridin-2-yl)-3-((8aS,12S)-8a-methyl-1,2,6b,7,8,8a,10,12,12a,12b-decahydronaphtho[2′1′:4,5]indeno[1,2-c]pyrazol-12-yl)propanamide] — lower, 34%
- Cc1ccnc(NC(=O)CC[C@@H]2c3c[nH]nc3[C@@]3(C)CCC4c5ccccc5CCC4C23)c1 (stereo partly drawn) [Compound 168, 3-((8aS,12S)-8a-methyl-1,2,6b,7,8,8a,10,12,12a,12b-decahydronaphtho[2′,1′:4,5]indeno[1,2-c]pyrazol-12-yl)-N-(4-methylpyridin-2-yl)propanamide] — higher, 58%
- C[C@]12CCC3c4ccccc4CCC3C1[C@H](CCC(=O)Nc1ccccn1)c1c[nH]nc12 (stereo partly drawn) [Compound 171, 3-((8aS,12S)-8a-methyl-1,2,6b,7,8,8a,10,12,12a,12b-decahydronaphtho[2′,1′:4,5]indeno[1,2-c]pyrazol-12-yl)-N-(pyridin-2-yl)propanamide] — lower, 27%
- C[C@]12CCC3c4ccccc4CCC3C1[C@H](CCC(=O)Nc1cnccn1)c1c[nH]nc12 (stereo partly drawn) [Compound 189, 3-((8aS,12S)-8a-methyl-1,2,6b,7,8,8a,10,12,12a,12b-decahydronaphtho[2′,1′:4,5]indeno[1,2-c]pyrazol-12-yl)-N-(pyrazin-2-yl)propanamide] — higher, 46%
- C[C@]12CCC3c4cccc(F)c4CCC3C1[C@H](CCC(=O)NC1CCCCC1)c1c[nH]nc12 (stereo partly drawn) [Compound 207, N-cyclohexyl-3-((8aS,12S)-3-fluoro-8a-methyl-1,2,6b,7,8,8a,10,12,12a,12b-decahydronaphtho[2′,1′:4,5]indeno[1,2-c]pyrazol-12-yl)propanamide] — lower, 14%
- C[C@]12CCC3c4cccc(F)c4CCC3C1[C@H](CCC(=O)N1CCCC1)c1c[nH]nc12 (stereo partly drawn) [Compound 210, 3-((8aS,12S)-3-fluoro-8a-methyl-1,2,6b,7,8,8a,10,12,12a,12b-decahydronaphtho[2′,1′:4,5]indeno[1,2-c]pyrazol-12-yl)-1-(pyrrolidin-1-yl)propan-1-one] — lower, 19%
- CCN(CC)C(=O)CC[C@@H]1c2c[nH]nc2[C@@]2(C)CCC3c4cccc(F)c4CCC3C12 (stereo partly drawn) [Compound 216, N,N-diethyl-3-((8aS,12S)-3-fluoro-8a-methyl-1,2,6b,7,8,8a,10,12,12a,12b-decahydronaphtho[2′,1′:4,5]indeno[1,2-c]pyrazol-12-yl)propanamide] — lower, 10%
- C[C@]12CCC3c4cccc(F)c4CCC3C1[C@H](CCC(=O)N1CCC3(CCOCC3)C1)c1c[nH]nc12 (stereo partly drawn) [Compound 219, 3-((8aS,12S)-3-fluoro-8a-methyl-1,2,6b,7,8,8a,10,12,12a,12b-decahydronaphtho[2′,1′:4,5]indeno[1,2-c]pyrazol-12-yl)-1-(8-oxa-2-azaspiro[4.5]decan-2-yl)propan-1-one] — lower, 14%
- CN(C)C(=O)CC[C@@H]1c2c[nH]nc2[C@@]2(C)CCC3c4cccc(F)c4CCC3C12 (stereo partly drawn) [Compound 222, 3-((8aS,12S)-3-fluoro-8a-methyl-1,2,6b,7,8,8a,10,12,12a,12b-decahydronaphtho[2′,1′:4,5]indeno[1,2-c]pyrazol-12-yl)-N,N-dimethylpropanamide] — lower, 11%

From patent publication US20220041647A1, “ESTRA-1,3,5(10)-TRIENE COMPOUNDS CONDENSED IN POSITION 16(17) WITH A PYRAZOLE RING AS INHIBITORS OF 17-HSD1” (FORENDO PHARMA LTD, priority 2018, published 2022)
